{
  "source": "patent EP4438597A1",
  "about": "“2-STYRYLBENZOTHIAZOLE DERIVATIVES AS A-SYNUCLEIN BINDING COMPOUNDS” (Eberhard Karls Universität Tübingen Medizinische Fakultät, priority 2023, dated 2024)",
  "key": {"[1]": {"test": "in vivo dynamic PET/MR imaging, pharmacokinetic profile", "details": "healthy wild-type mice, i.v.", "procedure": "The animal experiments were performed in compliance to the European directives on the protection and use of laboratory animals (Council Directive 2010/63/UE) and the German animal welfare act with approval from the local authorities (Regierungspräsidium Tuebingen, R3/19G). Three healthy wild-type female C57BU6J mice (20.3 ± 0.9 g; 9 weeks old) purchased from Charles River Laboratories (Sulzbach, Germany) were maintained in a vivarium on a 12:12 hour light dark cycle and were kept at a temperature of 22°C with 40-60% humidity and free access to a standard diet and tap water.\nThe mice (n = 3) were anaesthetized with 1.5% isoflurane evaporated in 100% oxygen at a flow rate of 0.8 L/min. Body temperature of 37°C was maintained using a feedback temperature control unit. PET imaging studies were performed on Inveon dedicated microPET system (Inveon D-PET, Siemens, Knoxville, TN, USA). Five seconds after the start of PET acquisition, mice were injected intravenously with 9.9 ± 0.6 MBq of [^18F]MFSB (Am = 46.2 ± 2.5 GBq/µmol at time of injection). The one-hour dynamic acquisitions were divided into 39 time frames (12×5 s, 6×10 s, 6×30 s, 5×60 s and 10×300 s). A 13-minute transmission measurement with a cobalt-57 point source was performed for attenuation correction. Subsequently, an anatomical magnetic resonance (MR) scan with a 7 Tesla MR scanner (ClinScan, Bruker BioSpin MRI GmbH, Ettlingen, Germany) using a rat whole-body volume coil and the Paravision software (v6.0.1, Bruker, Ettlingen, Germany) using a T2-weighted Turbo-RARE MRI sequence.\nThe PET image was reconstructed via the OSEM3D/SP-MAP reconstruction algorithm and coregistered to the whole-body MRI scan. […] Standardized uptake values (SUVs) were calculated as a ratio of the detected activity with injected activity and weight (SUV = (TAC (kBq/cc) / inj. activity (kBq)) * weight (g))."}, "αSYN pathology": {"target": "T1, αSYN pathology (Homo sapiens, UniProt P37840)", "T1 construct": "tissue Neurobiobank München (NBM, Munich, Germany); host or cells: post-mortem human brain slices (MSA cerebellum, PD frontal cortex, controls)", "test": "in vitro autoradiography on human brain slices with αSYN pathology (MSA, PD)", "type": "binding", "details": "10 nM tracer, NSB with 10 µM non-radioactive compound", "procedure": "Post-mortem human brain slices (10 µm thickness) were obtained from and the subject cases were analyzed by the Neurobiobank München (NBM, Munich, Germany), where tissues were collected on the basis of written informed consent according to the guidelines of the ethics committee of the Ludwig-Maximilians-University Munich, Germany (# 345-13). The use of brain tissue samples in this study was approved by the ethics committee of the Faculty of Medicine at the University of Tuebingen (Ethics approval number: 813/2018BO2). Table 1 summarizes the information of the subjects from which samples were obtained and used in the experiment.\nFor autoradiography, brain slices were thawed for one hour before preincubation in BSA buffer for 25 minutes at room temperature. To determine total binding (TB), brain slices were incubated with the tracer (10 nM [^18F]PFSB, 10 nM [^18F]MFSB). […]\nQuantitative data analysis was performed by drawing four regions of interest (ROIs) in relevant areas of the slice and one ROI next to it for background subtraction (imaged 1.8.0_172, National Institute of Health, Bethesda, Maryland, USA) (Schneider, C. A. et al., NIH Image to imaged: 25 years of image analysis; Nat Methods 2012, 9 (7), 671-5). […] The SB disease/SB control ratio was calculated by dividing by the SB in diseased tissues with the respective SB in control tissues."}},
  "data": [
    {"smiles": "[18F]c1ccc2nc(/C=C/c3ccc(N4CCOCC4)cc3)sc2c1", "note": "[[^18F]MFSB]", "values": [
      {"measurement": "crossing of the BBB", "setting": "[1]; dynamic PET/MR over 60 min", "result": "crossing of the BBB was successful"},
      {"measurement": "kidney uptake", "setting": "[1]; dynamic PET/MR over 60 min", "result": "Significant kidney uptake"},
      {"measurement": "SUV in lungs and liver", "setting": "[1]; first 2 min", "result": "≈ 5"},
      {"measurement": "SB disease/SB control, MSA1/cerebellum ctrl", "setting": "αSYN pathology", "result": 1.20}
    ]}
  ]
}
